Source: publication PMC10426190 (Breast Cancer Research : BCR, 2023)

Test system: E2-induced (ER target) genes in MCF7
Assay: Gene expression analysis by RNA-sequencing in MCF7 with E2 stimulation
Type: cell-based, human
Details: 24 h
Protocol: MCF7 were cultured in hormone deprivation media (with 10% charcoal-stripped FBS) for at least 3 days before assay. Trypsinized cells were seeded in a 12-well plate, stimulated with 1 nM β-estradiol (E2), and treated with/without 1 μM compounds for 24 h. Total RNA was extracted using the TRIzol reagent according to the manufacturer’s protocol. RNA purity and quantification were evaluated using the NanoDrop 2000 spectrophotometer (Thermo Scientific, USA). RNA integrity was assessed using the Agilent 2100 Bioanalyzer (Agilent Technologies, Santa Clara, CA, USA). Then the libraries were constructed using TruSeq Stranded mRNA LT Sample Prep Kit (Illumina, San Diego, CA, USA) according to the manufacturer’s instructions. The transcriptome sequencing and analysis were conducted by OE Biotech Co., Ltd. (Shanghai, China). The libraries were sequenced on an Illumina HiSeq X Ten platform and 150 bp paired-end reads were generated. […] Raw data (raw reads) of FASTq format were firstly processed using Trimmomatic and the low-quality reads were removed to obtain the clean reads. […] The clean reads were mapped to the human genome (GRCh38) using HISAT2 [27]. FPKM [28] of each gene was calculated using Cufflinks, and the read counts of each gene were obtained by HTSeqcount. Differential expression analysis was performed using the DESeq (2012) R package.
MCF7 with hormone-deprived pre-treatment were administrated ER ligands or not present with 1 nM E2 stimulation for 24 h incubation in a 12-well plate. Total mRNA was isolated from treated cells and sequenced on an Illumina HiSeq X Ten platform. FPKM of each gene was calculated using Cufflinks and Differential expression genes analysis by using the DESeq (2012) R package. […] T47D EFM-19 and HCC1500 cells were grown in RPMI media supplemented with 10% charcoal-stripped FBS for 14 days and then treated with ER antagonist (1 μM) or DMSO in the presence E2 (1nM) stimulation for 24 h before RNA isolation and gene expression analysis as described in methods. […] The uteruses were harvested 24 h after the final doses and stained by toluidine blue. Endometrial height was assessed from the basement membrane to the luminal border (scale bar in green lines: 200 μm), Arrows indicate the uterine epithelium (e).

CC/C(=C(\c1ccc(O)cc1)c1ccc(OCCN(C)C)cc1)c1ccccc1 [4-OH-tamoxifen]
percentage of E2-induced genes suppressed, Relative to 1 nM E2 Down% (MCF7, 1 nM E2 + 1 μM compound): 59.1% | percentage of genes upregulated, Relative to 1 nM E2 Up% (MCF7, 1 nM E2 + 1 μM compound, foldchange > twofold): 5.8% | ACTG2 expression (MCF7, 1 nM E2 ± 1 μM compound): 2.33 FPKM | ADCY1 expression (MCF7, 1 nM E2 ± 1 μM compound): 19.17 FPKM | AGR3 expression (MCF7, 1 nM E2 ± 1 μM compound): 25.86 FPKM | AMZ1 expression (MCF7, 1 nM E2 ± 1 μM compound): 3.21 FPKM | ANLN expression (MCF7, 1 nM E2 ± 1 μM compound): 22.77 FPKM | ARHGAP36 expression (MCF7, 1 nM E2 ± 1 μM compound): 1.42 FPKM | ASCL1 expression (MCF7, 1 nM E2 ± 1 μM compound): 2.50 FPKM | ASF1B expression (MCF7, 1 nM E2 ± 1 μM compound): 33.57 FPKM | ASMTL-2 expression (MCF7, 1 nM E2 ± 1 μM compound): 3.33 FPKM | ATAD2 expression (MCF7, 1 nM E2 ± 1 μM compound): 29.15 FPKM | ATRNL1 expression (MCF7, 1 nM E2 ± 1 μM compound): 0.29 FPKM | AURKB expression (MCF7, 1 nM E2 ± 1 μM compound): 18.53 FPKM | BIRC5 expression (MCF7, 1 nM E2 ± 1 μM compound): 26.74 FPKM | BLM expression (MCF7, 1 nM E2 ± 1 μM compound): 3.14 FPKM | BMPER expression (MCF7, 1 nM E2 ± 1 μM compound): 0.18 FPKM | BRCA1 expression (MCF7, 1 nM E2 ± 1 μM compound): 3.58 FPKM | BRCA2 expression (MCF7, 1 nM E2 ± 1 μM compound): 2.51 FPKM | BRIP1 expression (MCF7, 1 nM E2 ± 1 μM compound): 22.65 FPKM | BUB1B expression (MCF7, 1 nM E2 ± 1 μM compound): 9.15 FPKM | C1orf226 expression (MCF7, 1 nM E2 ± 1 μM compound): 5.19 FPKM | C5AR2 expression (MCF7, 1 nM E2 ± 1 μM compound): 2.33 FPKM | CA2 expression (MCF7, 1 nM E2 ± 1 μM compound): 157.09 FPKM | CA12 expression (MCF7, 1 nM E2 ± 1 μM compound): 46.02 FPKM | CALCR expression (MCF7, 1 nM E2 ± 1 μM compound): 4.03 FPKM | CAV1 expression (MCF7, 1 nM E2 ± 1 μM compound): 5.56 FPKM | CCN5 expression (MCF7, 1 nM E2 ± 1 μM compound): 29.67 FPKM | CCNA2 expression (MCF7, 1 nM E2 ± 1 μM compound): 17.16 FPKM | CCNE2 expression (MCF7, 1 nM E2 ± 1 μM compound): 7.22 FPKM | CD99-2 expression (MCF7, 1 nM E2 ± 1 μM compound): 0.97 FPKM | CDC6 expression (MCF7, 1 nM E2 ± 1 μM compound): 6.08 FPKM | CDC25A expression (MCF7, 1 nM E2 ± 1 μM compound): 2.63 FPKM | CDC45 expression (MCF7, 1 nM E2 ± 1 μM compound): 5.79 FPKM | CDCA3 expression (MCF7, 1 nM E2 ± 1 μM compound): 6.21 FPKM | CDCA4 expression (MCF7, 1 nM E2 ± 1 μM compound): 15.28 FPKM | CDCA5 expression (MCF7, 1 nM E2 ± 1 μM compound): 13.04 FPKM | CDCA7 expression (MCF7, 1 nM E2 ± 1 μM compound): 2.77 FPKM | CDH26 expression (MCF7, 1 nM E2 ± 1 μM compound): 0.69 FPKM | CDK1 expression (MCF7, 1 nM E2 ± 1 μM compound): 15.34 FPKM | CDT1 expression (MCF7, 1 nM E2 ± 1 μM compound): 21.06 FPKM | CENPI expression (MCF7, 1 nM E2 ± 1 μM compound): 3.21 FPKM | CENPU expression (MCF7, 1 nM E2 ± 1 μM compound): 5.41 FPKM | CHAF1B expression (MCF7, 1 nM E2 ± 1 μM compound): 2.31 FPKM | CHEK1 expression (MCF7, 1 nM E2 ± 1 μM compound): 2.63 FPKM | CKS1B expression (MCF7, 1 nM E2 ± 1 μM compound): 49.15 FPKM | CLSPN expression (MCF7, 1 nM E2 ± 1 μM compound): 1.96 FPKM | COL12A1 expression (MCF7, 1 nM E2 ± 1 μM compound): 3.75 FPKM | CXCL12 expression (MCF7, 1 nM E2 ± 1 μM compound): 3.86 FPKM | DDIAS expression (MCF7, 1 nM E2 ± 1 μM compound): 4.48 FPKM | DHRSX-2 expression (MCF7, 1 nM E2 ± 1 μM compound): 1.54 FPKM | DKK1 expression (MCF7, 1 nM E2 ± 1 μM compound): 41.67 FPKM | DNA2 expression (MCF7, 1 nM E2 ± 1 μM compound): 3.39 FPKM | DPYSL5 expression (MCF7, 1 nM E2 ± 1 μM compound): 0.63 FPKM | DSCC1 expression (MCF7, 1 nM E2 ± 1 μM compound): 4.49 FPKM | DTL expression (MCF7, 1 nM E2 ± 1 μM compound): 2.21 FPKM | E2F1 expression (MCF7, 1 nM E2 ± 1 μM compound): 8.56 FPKM | E2F2 expression (MCF7, 1 nM E2 ± 1 μM compound): 1.96 FPKM | E2F7 expression (MCF7, 1 nM E2 ± 1 μM compound): 3.12 FPKM | E2F8 expression (MCF7, 1 nM E2 ± 1 μM compound): 4.23 FPKM | ELOVL2 expression (MCF7, 1 nM E2 ± 1 μM compound): 7.72 FPKM | EME1 expression (MCF7, 1 nM E2 ± 1 μM compound): 4.92 FPKM | ERCC6L expression (MCF7, 1 nM E2 ± 1 μM compound): 1.82 FPKM | ESCO2 expression (MCF7, 1 nM E2 ± 1 μM compound): 2.98 FPKM | ESPL1 expression (MCF7, 1 nM E2 ± 1 μM compound): 7.94 FPKM | EXO1 expression (MCF7, 1 nM E2 ± 1 μM compound): 3.27 FPKM | FAM20A expression (MCF7, 1 nM E2 ± 1 μM compound): 2.46 FPKM | FAM111B expression (MCF7, 1 nM E2 ± 1 μM compound): 4.32 FPKM | FANCA expression (MCF7, 1 nM E2 ± 1 μM compound): 10.70 FPKM | FANCD2 expression (MCF7, 1 nM E2 ± 1 μM compound): 6.23 FPKM | FANCI expression (MCF7, 1 nM E2 ± 1 μM compound): 20.35 FPKM | FEN1 expression (MCF7, 1 nM E2 ± 1 μM compound): 31.76 FPKM | FIGNL1 expression (MCF7, 1 nM E2 ± 1 μM compound): 2.46 FPKM | FKBP4 expression (MCF7, 1 nM E2 ± 1 μM compound): 79.90 FPKM | GATA4 expression (MCF7, 1 nM E2 ± 1 μM compound): 0.08 FPKM | GFRA1 expression (MCF7, 1 nM E2 ± 1 μM compound): 84.37 FPKM | GINS1 expression (MCF7, 1 nM E2 ± 1 μM compound): 11.19 FPKM | GINS2 expression (MCF7, 1 nM E2 ± 1 μM compound): 12.84 FPKM | GJA1 expression (MCF7, 1 nM E2 ± 1 μM compound): 0.31 FPKM | GLA expression (MCF7, 1 nM E2 ± 1 μM compound): 41.63 FPKM | GP1BB expression (MCF7, 1 nM E2 ± 1 μM compound): 0.99 FPKM | GPR68 expression (MCF7, 1 nM E2 ± 1 μM compound): 0.38 FPKM | GPRIN1 expression (MCF7, 1 nM E2 ± 1 μM compound): 4.22 FPKM | GREB1 expression (MCF7, 1 nM E2 ± 1 μM compound): 4.76 FPKM | H2AX expression (MCF7, 1 nM E2 ± 1 μM compound): 94.16 FPKM | HBB expression (MCF7, 1 nM E2 ± 1 μM compound): 2.54 FPKM | HELLS expression (MCF7, 1 nM E2 ± 1 μM compound): 3.37 FPKM | HEY2 expression (MCF7, 1 nM E2 ± 1 μM compound): 1.93 FPKM | HMGB2 expression (MCF7, 1 nM E2 ± 1 μM compound): 125.20 FPKM | IGFBP4 expression (MCF7, 1 nM E2 ± 1 μM compound): 56.87 FPKM | IGSF1 expression (MCF7, 1 nM E2 ± 1 μM compound): 3.37 FPKM | ITGA2B expression (MCF7, 1 nM E2 ± 1 μM compound): 0.44 FPKM | KIF11 expression (MCF7, 1 nM E2 ± 1 μM compound): 13.08 FPKM
